Test results from paper PMC8388771, “Cationic Peptidomimetic Amphiphiles Having a N-Aryl- or N-Naphthyl-1,2,3-Triazole Core Structure Targeting Clostridioides (Clostridium) difficile: Synthesis, Antibacterial Evaluation, and an In Vivo C. difficile Infection Model” (Antibiotics, 2021).
≈ marks a conversion by molar mass, not a printed value.

Tests used:
[1] = system: C. difficile ATCC 700057; assay: Primary MIC assay, C. difficile ATCC 700057; format: cell-based, Clostridioides difficile; conditions: Clostridioides difficile, ATCC700057; Table 1; read-out: MIC C. difficile ATCC 700057
Description: (§1) The N-arytriazole and N-naphthyltriazole peptidomimetics were subjected to antimicrobial screening. […] Vancomycin, colistin, fluconazole, and tamoxifen were used as positive controls (see Table 1 for details).
(§2) Primary screening (Gram-positive bacteria). Primary MIC assays were performed as described by the Clinical and Laboratory Standards Institute for aerobic and anaerobic bacteria. MIC values for vancomycin were within acceptable QC ranges.

[2] = system: E. coli ATCC 25922; assay: Primary MIC assay, E. coli ATCC 25922; format: cell-based; conditions: Escherichia coli, ATCC25922; Table 1; read-out: MIC E. coli ATCC 25922
[3] = system: A. baumannii ATCC 19606; assay: CO-ADD MIC assay, A. baumannii ATCC 19606; format: cell-based; conditions: Acinetobacter baumannii, ATCC19606, Table S1
Description: as §1
(§3) Secondary screening (MRSA and Gram-negative bacteria) and cytotoxicity assay–performed by the Community for Open Antimicrobial Drug Discovery (CO-ADD). Samples were provided to CO-ADD [29] for antimicrobial screening by whole cell growth inhibition assays.
(§4) Bacterial Inhibition–MIC Assay. These were performed as described previously.

[4] = system: E. faecalis ATCC 29212; assay: Primary MIC assay, E. faecalis ATCC 29212; format: cell-based, Enterococcus faecalis; conditions: Enterococcus faecalis, ATCC29212; Table 1; read-out: MIC E. faecalis ATCC 29212
Description: as §1, §2

[5] = system: S. aureus NCTC 10442; assay: Primary MIC assay, S. aureus NCTC 10442 (MRSA); format: cell-based; conditions: Staphylococcus aureus; Table 1; MRSA; read-out: MIC S. aureus NCTC 10442
Description: as §1, §2

[6] = system: Cryptococcus neoformans var. grubii ATCC 208821; assay: CO-ADD MIC assay, C. neoformans var. grubii ATCC 208821; format: cell-based; conditions: Cryptococcus neoformans, ATCC208821, Table S1
Description: as §1, §3

[7] = system: E. coli ATCC 25922; assay: CO-ADD MIC assay, E. coli ATCC 25922; format: cell-based; conditions: Escherichia coli, ATCC25922, Table S1
Description: as §1, §3, §4

[8] = system: human erythrocytes; assay: Hemolysis assay, HC50 determination; format: cell-based
Description: Hemolysis assay (human erythrocytes)–HC50 determination. These were performed as described previously.

[9] = system: S. pneumoniae ATCC 49619; assay: Primary MIC assay, S. pneumoniae ATCC 49619; format: cell-based, Streptococcus pneumoniae; conditions: Streptococcus pneumoniae, ATCC49619; Table 1; read-out: MIC S. pneumoniae ATCC 49619
Description: as §1, §2

[10] = Cytotoxicity (CC50) assay by CO-ADD; format: cell-based, human; conditions: human, HEK293 cells (ATCC CRL-1573); Table 1; cytotoxicity on HEK293 cells, tested at ≤32 µg/mL
Description: as §1, §3
Cytotoxicity Assay. These were performed as described previously.

[11] = system: K. pneumoniae ATCC 700603; assay: CO-ADD MIC assay, K. pneumoniae ATCC 700603; format: cell-based; conditions: Klebsiella pneumoniae, ATCC700603, Table S1, multi-drug resistant
Description: as §1, §3, §4

[12] = system: C. albicans ATCC 90028; assay: CO-ADD MIC assay, C. albicans ATCC 90028; format: cell-based; conditions: Candida albicans, ATCC90028, Table S1
Description: as §1, §3

[13] = system: P. aeruginosa ATCC 27853; assay: CO-ADD MIC assay, P. aeruginosa ATCC 27853; format: cell-based; conditions: Pseudomonas aeruginosa, ATCC27853, Table S1
Description: as §1, §3, §4

[14] = system: C. difficile 132 (RT027); assay: Primary MIC assay, C. difficile 132 (RT027); format: cell-based, Clostridioides difficile; conditions: Clostridioides difficile; Table 1; read-out: MIC C. difficile 132 (RT027)
Description: as §1, §2

[15] = system: S. aureus ATCC 43300; assay: CO-ADD MIC assay, S. aureus ATCC 43300 (MRSA); format: cell-based; conditions: Staphylococcus aureus, Table S1; MRSA; CO-ADD; read-out: MIC S. aureus ATCC 43300
Description: as §1, §3, §4

[16] = system: S. aureus ATCC 29213; assay: Primary MIC assay, S. aureus ATCC 29213; format: cell-based; conditions: Staphylococcus aureus, ATCC29213; Table 1; read-out: MIC S. aureus ATCC 29213
Description: as §1, §2

[17] = Table 1, lysis of human erythrocytes
[18] = Table S1, footnote says lysis of sheep erythrocytes

| MIC [1] [mg/L] | MIC [2] [mg/L] | MIC [3] [mg/L] | MIC [4] [mg/L] | MIC [5] [mg/L] | MIC [6] [mg/L] | MIC [7] [mg/L] | MIC [9] [mg/L] | MIC [11] [mg/L] | MIC [12] [mg/L] | MIC [13] [mg/L] | MIC [14] [mg/L] | MIC [15] [mg/L] | MIC [16] [mg/L] | Compound | HC50 [8, 17] [µg/mL] | HC50 [8, 18] [µg/mL] | CC50 [10] [mg/L] |
| --- | --- | --- | --- | --- | --- | --- | --- | --- | --- | --- | --- | --- | --- | --- | --- | --- | --- |
| 32 | 128 | > 32 | 32 | 32 | 32 | > 32 | 16 | > 32 | > 32 | > 32 | 64 | 32 | 32 | CC(C)CCc1cn(-c2ccccc2OCC(=O)N[C@H](CCCNC(=N)N)Cn2cc(Cc3ccccc3)nn2)nn1.Cl [Compound 13] | >32 | > 32 | > 32 |
| 64 (≈ 92.4 µM) | 64 (≈ 92.4 µM) | > 32 | 16 (≈ 23.1 µM) | 32 (≈ 46.2 µM) | 16 (≈ 23.1 µM) | > 32 | 8 (≈ 11.5 µM) | > 32 | 16 (≈ 23.1 µM) | > 32 | 64 (≈ 92.4 µM) | 16 (≈ 23.1 µM) | 16 (≈ 23.1 µM) | CC(C)CCc1cnnn1-c1ccccc1OCC(=O)N[C@H](CCCCN)C(=O)N[C@H](CCCNC(=N)N)Cn1cc(C2CCCCC2)nn1 [Compound 37] | >32 | > 32 | > 32 |
| 32 | 128 | > 32 | 32 | 32 | 32 | > 32 | 16 | > 32 | > 32 | > 32 | 64 | 32 | 32 | CC(C)CCc1cn(-c2ccccc2OCC(=O)N[C@H](CCCNC(=N)N)Cn2cc(-c3ccc(F)cc3)nn2)nn1.Cl [Compound 12] | >32 | > 32 | > 32 |
| 32 (≈ 56.7 µM) | 128 (≈ 227 µM) | > 32 | 32 (≈ 56.7 µM) | 32 (≈ 56.7 µM) | 32 (≈ 56.7 µM) | > 32 | 16 (≈ 28.3 µM) | > 32 | > 32 | > 32 | 64 (≈ 113 µM) | 32 (≈ 56.7 µM) | 32 (≈ 56.7 µM) | CC(C)CCc1cn(-c2ccccc2OCC(=O)N[C@H](CCCNC(=N)N)Cn2cc(C3CCCCC3)nn2)nn1 [Compound 10] | >32 | > 32 | > 32 |
| 32 (≈ 52 µM) | 32 (≈ 52 µM) | 32 (≈ 52 µM) | 8 (≈ 13 µM) | 8 (≈ 13 µM) | > 32 | 32 (≈ 52 µM) | 8 (≈ 13 µM) | > 32 | 32 (≈ 52 µM) | 32 (≈ 52 µM) | 32 (≈ 52 µM) | 8 (≈ 13 µM) | 8 (≈ 13 µM) | CC(C)CCc1cnnn1-c1c(OCC(=O)N[C@H](CCCNC(=N)N)Cn2cc(C3CCCCC3)nn2)ccc2ccccc12 [Compound 24] | >32 | > 32 | 21.9 (≈ 35.6 µM) |
| 32 | 128 | > 32 | 32 | 32 | 32 | > 32 | 16 | > 32 | > 32 | > 32 | 64 | 32 | 32 | CC(C)CCc1cn(-c2ccccc2OCC(=O)N[C@H](CCCNC(=N)N)Cn2cc(C3CCCC3)nn2)nn1.Cl [Compound 11] | >32 | > 32 | > 32 |
| 64 | 64 | > 32 | 16 | 8 | > 32 | > 32 | 4 | > 32 | 32 | > 32 | > 128 | 16 | 8 | CC(C)CCc1cnnn1-c1c(OCC(=O)N[C@H](CCCNC(=N)N)Cn2cc(Cc3ccccc3)nn2)ccc2ccccc12.Cl [Compound 26] | >32 | > 32 | 23.5 |
